Measurements taken from patent US3944498A, “Germicidal detergent containing a thienyliodonium salt” (The Dow Chemical Company, priority 1973, dated 1976).

Key:
[1] = tested on: S. typhosa; experiment: Nutrient agar growth test, S. typhosa (Example 3); format: cell-based; conditions: 0.001 percent by weight, 2 days, 35°C
Description: (§1) The 4-chlorophenyl-2-thienyliodonium chloride, trifluoroacetate and trichloroacetate salts are dispersed in melted nutrient agar to produce culture media containing 0.001 percent by weight of one of the salt compounds. Such melted media are then poured into petri dishes and the solidified surface in each dish inoculated with a 24-hour broth culture, one of the organisms S. aureus and S. typhosa. In a check operation, petri dishes containing unmodified nutrient agar are each individually inoculated in the same manner with the named organisms. After two days' incubation at 35°C. the agar surface in each dish is examined for microbial growth. […] At the time of these observations the check dishes are found to support a heavy growth of the two named organisms.

[2] = tested on: S. typhosa; experiment: Agar plate kill test with Ivory soap, S. typhosa; format: cell-based; conditions: 48 h; 1 p.p.m., Ivory soap; read-out: Percent Kill of S. Typhosa
Procedure: (§2) Phenyl-2-thienyliodonium chloride, 2,2'-bisthienyliodonium chloride, and, for comparative purposes, diphenyliodonium chloride are individually dispersed in Ivory soap to provide concentrates containing 1 part by weight of iodonium salt to 50 parts by weight of soap. The soap concentrates are serially dispersed and serially diluted with liquid nutrient agar at 42°C. to prepare culture media containing various concentrations of one of the iodonium salts. The culture media are uniformly inoculated with S. aureus and plated in petri dishes. The inoculation is carried out from broth cultures of the named organism containing about 5×10^8 organisms per milliliter in the proportion of one-tenth milliliter of bacterial culture per 20 milliliters of cultur medium containing each test compound. In a check operation, nutrient agar containing the same amount of Ivory soap is similarly inoculated with the same organism. After two days' incubation at 37°C., the plates are examined for microbial growth.
The procedure described above is again repeated in a series of tests wherein the culture media are inoculated individually with the organism S. typhosa and wherein the culture media contain varying concentrations of one of the iodonium salts, as set forth in following Table II.

[3] = tested on: A. aerogenes; experiment: Agar plate kill test with Ivory soap, A. aerogenes; format: cell-based; conditions: Klebsiella aerogenes, 48 h, read-out: Percent Kill of A. aerogenes
Procedure: as §2
The procedure described above is repeated with varying concentrations of 4-chlorophenyl-2-thienyliodonium chloride, 3,4-dichlorophenyl-2-thienyliodonium chloride, and for comparative purposes bis(4-chlorophenyl)iodonium chloride, phenyl-4-chlorophenyliodonium chloride and bis(2,4-dichlorophenyl)iodoniumchloride in a series of tests wherein the culture media are inoculated individually with the organism A. aerogenes.
The procedure described above is once again repeated with each of 2,2'-bisthienyliodonium chloride, phenyl-2-thienyliodonium chloride, 4-bromophenyl-2-thienyliodonium chloride, bis(4-bromophenyl)iodonium chloride and bis(4-bromophenyl)iodonium bromide in a series of tests wherein the culture media are inoculated individually with the organism A. aerogenes.

[4] = tested on: S. aureus; experiment: Nutrient agar growth test, S. aureus (Example 3); format: cell-based; conditions: 0.001 percent by weight, 2 days, 35°C
Description: as §1

[5] = Oral median lethal dose in Sprague-Dawley (Cox strain) rats; format: in vivo; conditions: rat, in vivo, po; for LD50: 7 and 14 days
Procedure: (§3) The oral median lethal dose (LD50) of ClPhThICl was also determined in Sprague-Dawley (Cox strain) rats within a weight range of 93 to 118 grams. Five groups of rats, each consisting of 10 males and 10 females, were given the compound in an aqueous 0.5 percent METHOCEL hydroxypropyl methylcellulose (4000 cps.) suspension at a concentration of 300 mg/ml. The compound was administered as a single oral dose at 0.2 logarithmic dose intervals (709, 1120, 1780, 2820, 4450 mg/kg), and the following mortality experience was noted:
(§4) The percent of total mortalities occurring was 53.9, 79.3, 85.7 and 93.6 at 6, 24, 48 and 72 hours post-treatment, respectively. The last death occurred between 72 and 96 hours post-treatment in male rats in the 1780 and 4450 mg/kg groups.

[6] = tested on: Sprague-Dawley (Cox strain) rats; experiment: as above; format: in vivo
Procedure: as §3, §4

[7] = tested on: Sprague-Dawley (Cox strain) rats; experiment: as above; format: in vivo; conditions: 708 mg/kg oral, 24 Hours
[8] = tested on: organisms of mold and mildew; experiment: Protection of latex paint on wood panels from mold and mildew, tropical chamber; conditions: 0.3 percent by weight in latex paint, two months, 95 percent RH, 82°F
Procedure: 4-Chlorophenyl-2-thienyliodonium chloride is employed in a paint composition to protect the paint from attack and subsequent degradation by the organisms of mold and mildew. In such operations, the salt compound is dispersed and incorporated in the latex paint in the amount of 0.3 percent by weight of the ultimate paint composition.
The paint employed in these operations is prepared by intimately blending a pigment dispersion with a letdown including a synthetic latex comprising an interpolymer of ethyl acrylate, methyl methacrylate, acrylic acid and methacrylic acid. The paint has the following composition.
Wood panels are then painted with the modified compositions as well as with the unmodified paint. The panels are dried and thereafter exposed two months in a tropical chamber at a relative humidity of 95 percent and a temperature of 82°F. (28°C.). Following this period, the wood panels are examined to ascertain what control of […] is obtained.

## Clc1ccc([I+]c2cccs2)cc1.[Cl-] [4-Chlorophenyl-2-thienyliodonium chloride]
[1]
  microbial growth on agar surface: free of microbial growth
[2]
  killing at 1 ppm: 100%
[3]
  killing at 1 ppm: 100%
[4]
  microbial growth on agar surface: free of microbial growth
[5]; female rats, 95% confidence limits 785-1540 mg/kg
  LD50: 1100 mg/kg
[5]; male rats, 95% confidence limits 1171-2296 mg/kg
  LD50: 1640 mg/kg
[5]; female rats, 95% confidence limits 1230-2080 mg/kg
  LD50 at 24 h: 1600 mg/kg
[5]; male rats, 95% confidence limits 1241-2610 mg/kg
  LD50 at 24 h: 1800 mg/kg
[6]; 708 mg/kg oral, 7 Days, females
  No. Dead: 0/10
[6]; 708 mg/kg oral, 7 Days, males
  No. Dead: 1/10
[6]; 708 mg/kg oral, 14 Days, females
  No. Dead: 0/10
[6]; 708 mg/kg oral, 14 Days, males
  No. Dead: 1/10
[6]; 1120 mg/kg oral, 7 Days, females
  No. Dead: 6/10
[6]; 1120 mg/kg oral, 7 Days, males
  No. Dead: 2/10
[6]; 1120 mg/kg oral, 14 Days, females
  No. Dead: 6/10
[6]; 1120 mg/kg oral, 14 Days, males
  No. Dead: 2/10
[6]; 1120 mg/kg oral, 24 Hours, females
  No. Dead: 2/10
[6]; 1120 mg/kg oral, 24 Hours, males
  No. Dead: 1/10
[6]; 1780 mg/kg oral, 7 Days, females
  No. Dead: 7/10
[6]; 1780 mg/kg oral, 7 Days, males
  No. Dead: 9/10
[6]; 1780 mg/kg oral, 14 Days, females
  No. Dead: 7/10
[6]; 1780 mg/kg oral, 14 Days, males
  No. Dead: 9/10
[6]; 1780 mg/kg oral, 24 Hours, females
  No. Dead: 6/10
[6]; 1780 mg/kg oral, 24 Hours, males
  No. Dead: 4/10
[6]; 2820 mg/kg oral, 7 Days, females
  No. Dead: 10/10
[6]; 2820 mg/kg oral, 7 Days, males
  No. Dead: 8/10
[6]; 2820 mg/kg oral, 14 Days, females
  No. Dead: 10/10
[6]; 2820 mg/kg oral, 14 Days, males
  No. Dead: 8/10
[6]; 2820 mg/kg oral, 24 Hours, females
  No. Dead: 9/10
[6]; 2820 mg/kg oral, 24 Hours, males
  No. Dead: 8/10
[6]; 4450 mg/kg oral, 7 Days, females
  No. Dead: 10/10
[6]; 4450 mg/kg oral, 7 Days, males
  No. Dead: 10/10
[6]; 4450 mg/kg oral, 14 Days, females
  No. Dead: 10/10
[6]; 4450 mg/kg oral, 14 Days, males
  No. Dead: 10/10
[6]; 4450 mg/kg oral, 24 Hours, females
  No. Dead: 10/10
[6]; 4450 mg/kg oral, 24 Hours, males
  No. Dead: 9/10
[6]; 6 hours post-treatment
  percent of total mortalities occurring: 53.9%
[6]; 24 hours post-treatment
  percent of total mortalities occurring: 79.3%
[6]; 48 hours post-treatment
  percent of total mortalities occurring: 85.7%
[6]; 72 hours post-treatment
  percent of total mortalities occurring: 93.6%
[7]; females
  No. Dead: 0/10
[7]; males
  No. Dead: 1/10
[8]
  control of growth of mold and mildew on painted panels: complete control of the growth of the organisms of mold and mildew
